Tests used:
[1] = molecular target: Testis-specific serine/threonine-protein kinase 2 (Homo sapiens) (UniProt Q96PF2); assay: Inhibition of recombinant full-length human TSSK2 assessed as residual activity at 10 uM using KKKVSRSGLYRSPSMPENLNRPR as substrate incubated for 40 mins in presence of [gamma33P]ATP by scintillation counting based radiometry assay relative to control
[2] = tested on: Mast/stem cell growth factor receptor Kit (Homo sapiens), P10721 [D816H]; assay: Inhibition of recombinant human C-Kit D816H mutant (544 to end residues) assessed as residual activity at 10 uM poly(Glu, Tyr) 4:1 as substrate incubated 40 mins in presence of [gamma-33ATP] by scintillation counting based radiometry assay relative to control
Sequence of Mast/stem cell growth factor receptor Kit (Homo sapiens), P10721 [D816H] (P10721 whole entry D816H): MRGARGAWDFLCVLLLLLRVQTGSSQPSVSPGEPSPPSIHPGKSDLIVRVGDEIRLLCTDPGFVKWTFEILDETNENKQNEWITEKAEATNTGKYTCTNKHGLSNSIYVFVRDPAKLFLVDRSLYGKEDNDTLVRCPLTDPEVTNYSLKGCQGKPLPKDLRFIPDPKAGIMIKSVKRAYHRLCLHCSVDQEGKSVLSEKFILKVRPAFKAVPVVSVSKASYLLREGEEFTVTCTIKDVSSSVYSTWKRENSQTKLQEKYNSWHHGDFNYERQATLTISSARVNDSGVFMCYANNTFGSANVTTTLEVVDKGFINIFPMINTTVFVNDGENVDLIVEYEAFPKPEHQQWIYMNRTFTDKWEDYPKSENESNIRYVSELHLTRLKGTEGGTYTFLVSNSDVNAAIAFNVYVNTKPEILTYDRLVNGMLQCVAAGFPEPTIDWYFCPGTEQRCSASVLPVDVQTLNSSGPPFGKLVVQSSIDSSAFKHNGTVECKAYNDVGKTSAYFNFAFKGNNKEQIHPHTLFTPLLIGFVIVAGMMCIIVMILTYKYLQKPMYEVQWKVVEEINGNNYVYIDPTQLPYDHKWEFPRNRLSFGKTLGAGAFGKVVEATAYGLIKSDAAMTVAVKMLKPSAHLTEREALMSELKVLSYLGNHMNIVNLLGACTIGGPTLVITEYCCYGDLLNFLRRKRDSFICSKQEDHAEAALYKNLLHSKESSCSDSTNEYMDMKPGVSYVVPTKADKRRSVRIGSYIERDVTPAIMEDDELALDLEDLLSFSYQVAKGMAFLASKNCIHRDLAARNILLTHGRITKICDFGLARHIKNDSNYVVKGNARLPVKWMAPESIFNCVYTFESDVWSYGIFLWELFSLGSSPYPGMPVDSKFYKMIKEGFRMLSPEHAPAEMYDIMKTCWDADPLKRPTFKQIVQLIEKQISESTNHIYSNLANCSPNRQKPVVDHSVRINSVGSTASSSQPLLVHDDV

[3] = molecular target: Protein kinase C gamma type (Homo sapiens) (UniProt P05129); assay: Inhibition of recombinant full-length human PKCgamma assessed as residual activity at 10 uM using histone H1 as substrate incubated for 40 mins in presence of [gamma33P]ATP by scintillation counting based radiometry assay relative to control
[4] = molecular target: CDK2/Cyclin A1 (Homo sapiens) (UniProt P24941+P78396); assay: Inhibition of recombinant full length human CDK2/CyclinA assessed as residual activity at 10 uM using Histone H1 as substrate incubated for 40 mins in presence of [gamma-33ATP] by scintillation counting based radiometry assay relative to control; assay type: protein-complex assay
[5] = tested on: Mast/stem cell growth factor receptor Kit (Homo sapiens), P10721 [V560G]; assay: Inhibition of recombinant human C-Kit V560G mutant (544 to end residues) assessed as residual activity at 10 uM poly(Glu, Tyr) 4:1 as substrate incubated 40 mins in presence of [gamma-33ATP] by scintillation counting based radiometry assay relative to control
Sequence of Mast/stem cell growth factor receptor Kit (Homo sapiens), P10721 [V560G] (P10721 whole entry V560G): as the sequence (P10721 whole entry D816H) above, with V560G, H816D counted along it

[6] = tested on: Glycogen synthase kinase-3 beta (Homo sapiens), P49841 [UNDEFINED MUTATION]; assay: Inhibition of human GSK-3beta H350L mutant (2 to end residues) assessed as residual activity at 10 uM using phospho GS2 peptide as substrate after 40 mins by [gamma-33ATP] radiometric assay relative to control
[7] = tested on: RAC-gamma serine/threonine-protein kinase (Homo sapiens), Q9Y243 [S472D]; assay: Inhibition of recombinant human PKBgamma S472D mutant (117 to end residues) assessed as residual activity at 10 uM using GRPRTSSFAEGKK as substrate incubated for 40 mins in presence of [gamma33P]ATP by scintillation counting based radiometry assay relative to control
Sequence of RAC-gamma serine/threonine-protein kinase (Homo sapiens), Q9Y243 [S472D] (Q9Y243 whole entry S472D, the tested form may be a part): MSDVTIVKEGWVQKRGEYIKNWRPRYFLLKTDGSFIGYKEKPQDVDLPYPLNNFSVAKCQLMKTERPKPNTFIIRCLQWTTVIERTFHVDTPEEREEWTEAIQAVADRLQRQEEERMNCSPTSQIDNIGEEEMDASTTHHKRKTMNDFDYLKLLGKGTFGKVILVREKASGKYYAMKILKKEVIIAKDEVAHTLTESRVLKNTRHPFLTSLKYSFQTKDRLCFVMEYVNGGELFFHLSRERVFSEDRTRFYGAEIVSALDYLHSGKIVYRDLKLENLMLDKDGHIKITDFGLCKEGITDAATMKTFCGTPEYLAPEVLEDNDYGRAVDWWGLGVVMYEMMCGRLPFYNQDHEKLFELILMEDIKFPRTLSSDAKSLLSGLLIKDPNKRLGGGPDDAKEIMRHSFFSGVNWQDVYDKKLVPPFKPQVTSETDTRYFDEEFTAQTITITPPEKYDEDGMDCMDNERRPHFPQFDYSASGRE

[8] = molecular target: Calcium/calmodulin-dependent protein kinase type II subunit gamma (Homo sapiens) (UniProt Q13555); assay: Inhibition of recombinant human CaMK2gamma (1 to 330 residues) assessed as residual activity at 10 uM using […] incubated for 40 mins in presence of [gamma-33ATP] by scintillation counting based radiometry assay relative to control
Sequence of Calcium/calmodulin-dependent protein kinase type II subunit gamma (Homo sapiens) (Q13555 whole entry, the tested form may be a part): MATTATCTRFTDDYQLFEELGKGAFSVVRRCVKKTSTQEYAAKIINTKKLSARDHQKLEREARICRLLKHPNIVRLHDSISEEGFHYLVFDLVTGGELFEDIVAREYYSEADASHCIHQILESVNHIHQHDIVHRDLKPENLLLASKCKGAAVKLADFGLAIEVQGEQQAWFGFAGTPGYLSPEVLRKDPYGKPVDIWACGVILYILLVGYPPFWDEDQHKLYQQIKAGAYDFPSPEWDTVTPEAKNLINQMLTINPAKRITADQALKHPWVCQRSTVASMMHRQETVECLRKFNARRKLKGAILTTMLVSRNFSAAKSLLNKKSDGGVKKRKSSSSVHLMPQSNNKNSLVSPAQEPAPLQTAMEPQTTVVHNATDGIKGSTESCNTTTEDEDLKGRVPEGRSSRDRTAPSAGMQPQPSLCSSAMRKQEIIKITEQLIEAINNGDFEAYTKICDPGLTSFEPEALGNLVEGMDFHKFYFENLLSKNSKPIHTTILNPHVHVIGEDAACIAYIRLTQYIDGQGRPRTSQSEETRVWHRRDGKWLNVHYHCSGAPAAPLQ

[9] = molecular target: Serine/threonine-protein kinase PAK 3 (Homo sapiens) (UniProt O75914); assay: Inhibition of recombinant full-length human PAK3 assessed as residual activity at 10 uM using RRRLSFAEPG as substrate measured after 40 mins in presence of [gamma33P]ATP by scintillation counting based radiometry assay relative to control
Sequence of Serine/threonine-protein kinase PAK 3 (Homo sapiens) (O75914 whole entry, looked up): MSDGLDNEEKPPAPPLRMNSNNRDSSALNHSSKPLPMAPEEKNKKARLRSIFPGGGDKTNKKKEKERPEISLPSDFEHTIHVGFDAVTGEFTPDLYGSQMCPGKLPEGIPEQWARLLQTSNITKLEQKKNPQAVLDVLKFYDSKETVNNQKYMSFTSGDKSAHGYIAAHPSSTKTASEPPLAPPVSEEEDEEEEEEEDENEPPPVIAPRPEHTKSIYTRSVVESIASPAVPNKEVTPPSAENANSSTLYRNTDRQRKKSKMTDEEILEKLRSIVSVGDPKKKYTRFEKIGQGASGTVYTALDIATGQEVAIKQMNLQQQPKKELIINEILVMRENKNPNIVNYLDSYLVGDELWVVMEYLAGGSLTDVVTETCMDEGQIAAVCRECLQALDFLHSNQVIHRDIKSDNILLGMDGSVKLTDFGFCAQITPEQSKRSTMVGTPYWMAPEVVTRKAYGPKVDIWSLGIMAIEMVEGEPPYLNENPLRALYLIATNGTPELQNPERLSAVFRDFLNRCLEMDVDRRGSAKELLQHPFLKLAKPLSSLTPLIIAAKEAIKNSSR

[10] = organism: Mus musculus; assay: Inhibition of recombinant full length mouse PI3K p110/p85 E545K mutant assessed as residual activity at 10 uM using phosphatidylinositol-4, 5-bisphosphate as substrate incubated for 40 mins in presence of [gamma33P]ATP by scintillation counting based radiometry assay relative to control
[11] = molecular target: Serine/threonine-protein kinase PLK2 (Homo sapiens) (UniProt Q9NYY3); assay: Inhibition of recombinant human SNK (65 to 409 residues) assessed as residual activity at 10 uM using casein as substrate incubated for 40 mins in presence of [gamma33P]ATP by scintillation counting based radiometry assay relative to control
[12] = molecular target: Serine/threonine-protein kinase Chk2 (Homo sapiens) (UniProt O96017); assay: Inhibition of recombinant human CHK2 (5 to end residues) assessed as residual activity at 10 uM using KKKVSRSGLYRSPSMPENLNRPR as substrate incubated for 40 mins in presence of [gamma-33ATP] by scintillation counting based radiometry assay relative to control
[13] = molecular target: Serine-protein kinase ATM (Homo sapiens) (UniProt Q13315); assay: Inhibition of recombinant full-length human ATM assessed as residual activity at 10 uM using GST-cMyc-p53 as substrate measured after 40 mins by ELISA relative to control
[14] = molecular target: Tyrosine-protein kinase BTK (Homo sapiens) (UniProt Q06187); assay: Inhibition of recombinant full length human BTK assessed as residual activity at 10 uM using KVEKIGEGTYGVVYK substrate incubated for 40 mins in presence of [gamma-33ATP] by scintillation counting based radiometry assay relative to control
[15] = molecular target: Mitogen-activated protein kinase kinase kinase 5 (Homo sapiens) (UniProt Q99683); assay: Inhibition of recombinant human ASK1 (649 to 946 residues) assessed as residual activity at 10 uM using myelin basic protein as substrate incubated for 40 mins in presence of [gamma-33ATP] by scintillation counting based radiometry assay relative to control
Sequence of Mitogen-activated protein kinase kinase kinase 5 (Homo sapiens) (Q99683 whole entry, the tested form may be a part): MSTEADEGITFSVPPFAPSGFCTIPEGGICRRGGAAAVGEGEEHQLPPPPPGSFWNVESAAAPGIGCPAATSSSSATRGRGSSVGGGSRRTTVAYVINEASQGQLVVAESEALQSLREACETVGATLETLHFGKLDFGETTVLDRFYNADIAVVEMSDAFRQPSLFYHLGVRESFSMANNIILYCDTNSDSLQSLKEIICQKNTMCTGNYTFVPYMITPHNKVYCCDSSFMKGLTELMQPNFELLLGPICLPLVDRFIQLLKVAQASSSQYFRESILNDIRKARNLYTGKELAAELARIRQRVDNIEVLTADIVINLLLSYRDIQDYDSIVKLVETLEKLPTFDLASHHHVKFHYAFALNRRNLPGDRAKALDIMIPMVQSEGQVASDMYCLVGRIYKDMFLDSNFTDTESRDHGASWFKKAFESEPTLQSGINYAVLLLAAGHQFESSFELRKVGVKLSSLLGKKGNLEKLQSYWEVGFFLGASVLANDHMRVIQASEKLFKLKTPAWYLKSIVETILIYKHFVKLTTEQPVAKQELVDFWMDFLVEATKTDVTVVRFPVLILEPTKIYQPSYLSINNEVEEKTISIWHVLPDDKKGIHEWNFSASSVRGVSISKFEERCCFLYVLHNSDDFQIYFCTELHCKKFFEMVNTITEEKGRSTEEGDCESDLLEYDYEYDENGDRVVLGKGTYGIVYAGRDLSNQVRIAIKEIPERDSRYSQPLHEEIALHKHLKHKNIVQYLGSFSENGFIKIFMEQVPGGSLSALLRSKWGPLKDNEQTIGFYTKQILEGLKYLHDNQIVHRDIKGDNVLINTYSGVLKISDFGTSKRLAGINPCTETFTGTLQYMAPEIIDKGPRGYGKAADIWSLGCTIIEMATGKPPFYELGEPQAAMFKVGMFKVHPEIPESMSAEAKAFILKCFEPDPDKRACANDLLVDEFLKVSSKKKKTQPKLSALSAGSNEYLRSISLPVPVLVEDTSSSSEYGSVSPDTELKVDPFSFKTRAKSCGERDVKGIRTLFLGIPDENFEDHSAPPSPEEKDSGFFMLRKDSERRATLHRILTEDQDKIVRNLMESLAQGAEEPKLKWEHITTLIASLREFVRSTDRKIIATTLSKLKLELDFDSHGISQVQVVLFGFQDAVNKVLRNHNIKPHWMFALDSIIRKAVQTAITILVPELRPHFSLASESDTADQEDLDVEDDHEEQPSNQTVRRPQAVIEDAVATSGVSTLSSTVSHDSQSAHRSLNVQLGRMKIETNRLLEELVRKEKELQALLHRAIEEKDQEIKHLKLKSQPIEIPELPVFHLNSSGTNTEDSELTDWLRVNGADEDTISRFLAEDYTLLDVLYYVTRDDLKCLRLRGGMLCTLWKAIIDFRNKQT

[16] = molecular target: Tyrosine-protein kinase TXK (Homo sapiens) (UniProt P42681); assay: Inhibition of recombinant human Txk (256 to end residues) assessed as residual activity at 10 uM using GEEPLYWSFPAKKK as substrate incubated for 40 mins in presence of [gamma33P]ATP by scintillation counting based radiometry assay relative to control
[17] = molecular target: Tyrosine-protein kinase FRK (Homo sapiens) (UniProt P42685); assay: Inhibition of recombinant human PTK5 (218 to end residues) assessed as residual activity at 10 uM using GGEEEEYFELVKKKK as substrate incubated for 40 mins in presence of [gamma33P]ATP by scintillation counting based radiometry assay relative to control
[18] = molecular target: Tyrosine-protein kinase Blk (Mus musculus) (UniProt P16277); assay: Inhibition of recombinant full length mouse BLK assessed as residual activity at 10 uM using poly(Glu, Tyr) 4:1 as substrate incubated for 40 mins in presence of [gamma-33ATP] by scintillation counting based radiometry assay relative to control
Sequence of Tyrosine-protein kinase Blk (Mus musculus) (P16277 whole entry, the tested form may be a part): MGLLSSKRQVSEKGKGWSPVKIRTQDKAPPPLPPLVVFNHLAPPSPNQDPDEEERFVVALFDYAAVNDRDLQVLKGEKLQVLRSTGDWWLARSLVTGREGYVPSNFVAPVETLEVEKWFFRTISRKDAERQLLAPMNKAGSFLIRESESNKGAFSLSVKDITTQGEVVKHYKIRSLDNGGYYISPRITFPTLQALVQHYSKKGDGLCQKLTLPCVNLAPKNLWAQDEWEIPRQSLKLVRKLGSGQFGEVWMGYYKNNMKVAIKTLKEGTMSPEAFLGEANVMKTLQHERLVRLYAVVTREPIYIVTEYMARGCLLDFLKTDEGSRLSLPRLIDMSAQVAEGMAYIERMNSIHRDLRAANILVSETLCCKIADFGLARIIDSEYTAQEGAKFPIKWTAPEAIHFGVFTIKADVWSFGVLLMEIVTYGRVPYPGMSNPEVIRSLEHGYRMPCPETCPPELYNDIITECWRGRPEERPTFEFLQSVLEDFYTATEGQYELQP

[19] = molecular target: Serine/threonine-protein kinase ULK1 (Homo sapiens) (UniProt O75385); assay: Inhibition of recombinant human ULK1 (1 to 314 residues) assessed as residual activity at 10 uM using casein as substrate incubated for 40 mins in presence of [gamma33P]ATP by scintillation counting based radiometry assay relative to control
[20] = molecular target: Activated CDC42 kinase 1 (Homo sapiens) (UniProt Q07912); assay: Inhibition of human ACK1 (1 to 389 residues) assessed as residual activity at 10 uM using EFPIYDFLPAKKK as substrate incubated for 40 mins in presence of [gamma-33ATP] by scintillation counting based radiometry assay relative to control
[21] = molecular target: Cyclin-dependent kinase 1/cyclin B1 (Homo sapiens) (UniProt P06493+P14635); assay: Inhibition of recombinant full length human CDK1/CyclinB assessed as residual activity at 10 uM using Histone H1 as substrate incubated for 40 mins in presence of [gamma-33ATP] by scintillation counting based radiometry assay relative to control; assay type: protein-complex assay

Sequence of Testis-specific serine/threonine-protein kinase 2 (Homo sapiens) (Q96PF2 whole entry): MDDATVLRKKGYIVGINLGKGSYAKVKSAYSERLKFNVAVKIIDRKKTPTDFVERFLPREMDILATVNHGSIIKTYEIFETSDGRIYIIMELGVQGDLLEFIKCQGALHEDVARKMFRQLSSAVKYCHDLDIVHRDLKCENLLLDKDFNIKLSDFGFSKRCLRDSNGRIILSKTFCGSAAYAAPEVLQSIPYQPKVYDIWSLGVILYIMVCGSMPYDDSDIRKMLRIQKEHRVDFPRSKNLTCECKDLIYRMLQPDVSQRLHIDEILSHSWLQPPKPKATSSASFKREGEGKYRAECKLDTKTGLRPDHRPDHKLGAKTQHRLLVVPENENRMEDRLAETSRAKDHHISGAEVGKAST

Compound: C[C@@H](c1ccccc1)n1nnc2cnc3ccc(-c4cnc5[nH]ccc5c4)cc3c21
- Activity [1]: 63%
- Activity [2]: 8%
- Activity [3]: 83%
- Activity [4]: 63%
- Activity [5]: 3%
- Activity [6]: 81%
- Activity [7]: 48%
- Activity [8]: 72%
- Activity [9]: 136%
- Activity [10]: 1%
- Activity [11]: 90%
- Activity [12]: 57%
- Activity [13]: 0%
- Activity [14]: 17%
- Activity [15]: 58%
- Activity [16]: 23%
- Activity [17]: 7%
- Activity [18]: 12%
- Activity [19]: 91%
- Activity [20]: 22%
- Activity [21]: 63%

From ChEMBL document CHEMBL4334471, “Discovery of 1,8-disubstituted-[1,2,3]triazolo[4,5-c]quinoline derivatives as a new class of Hippo signaling pathway inhibitors” (Bioorg Med Chem Lett, 2019)
